IC50 data for 35 compounds are collected here from patent US7585859B2, “PDE4B inhibitors and uses therefor” (Plexxikon, Inc., priority 2004, dated 2009).

Test [1] addresses T1, PDE4B: The catalytic domain of human PDE4B from S152-S528 (Homo sapiens, UniProt Q07343).
T1 construct: His6 (N); thrombin cleavage site (N); made in house; host or cells: E. coli
Put plainly: PDE4 IC50 determination by Scintillation Proximity Assay, PDE4B. Type of test: biochemical. In short, it runs like this:
(§1)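 Scintillation counts reflected [^3H]AMP captured on yttrium silicate SPA beads after enzyme hydrolysed [^3H]cAMP for 30 min at 30°. PDE4B was used at 80 ng/ml and PDE4D at 4 ng/ml. IC50 values came from non-linear regression.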
(In general: SPA uses beads or plates that emit light when radiolabelled molecules are held near them.)

Test [2] has as its target T2, PDE4D (Homo sapiens, UniProt Q08499).
T2 construct: PDE4D: The catalytic domain of human PDE4B from S3 16-V692; His6 (N); thrombin cleavage site (N); made in house; host or cells: E. coli
Put plainly: PDE4 IC50 determination by Scintillation Proximity Assay, PDE4D. It is filed as biochemical. The method in brief:
as §1

The mark [3] stands for this setting: second part of Table 2B (2-23 to 2-103), column 3, column is PDE4B in first part, read-out: IC 50 vs. indicated assay h TNFα.
The mark [4] stands for this setting: second part of Table 2B (2-23 to 2-103), column 5, column is PDE4D in first part, read-out: IC 50 vs. indicated assay h TNFα.

Like-named read-outs stand apart in the source and are kept apart here. Bounds are passed on as bounds.

T1 sequence (Q07343 with tags, fused parts or gaps): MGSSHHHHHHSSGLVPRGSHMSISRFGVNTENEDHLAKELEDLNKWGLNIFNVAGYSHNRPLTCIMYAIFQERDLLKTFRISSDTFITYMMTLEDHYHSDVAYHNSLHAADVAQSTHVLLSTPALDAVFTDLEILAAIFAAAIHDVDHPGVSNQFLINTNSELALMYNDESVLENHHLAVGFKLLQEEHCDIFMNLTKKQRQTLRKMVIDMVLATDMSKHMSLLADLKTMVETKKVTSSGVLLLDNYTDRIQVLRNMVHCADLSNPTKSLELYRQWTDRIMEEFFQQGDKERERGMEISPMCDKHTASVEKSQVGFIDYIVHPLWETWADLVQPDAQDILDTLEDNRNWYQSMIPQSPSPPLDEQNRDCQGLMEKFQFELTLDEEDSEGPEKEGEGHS
T2 sequence (Q08499 380-756): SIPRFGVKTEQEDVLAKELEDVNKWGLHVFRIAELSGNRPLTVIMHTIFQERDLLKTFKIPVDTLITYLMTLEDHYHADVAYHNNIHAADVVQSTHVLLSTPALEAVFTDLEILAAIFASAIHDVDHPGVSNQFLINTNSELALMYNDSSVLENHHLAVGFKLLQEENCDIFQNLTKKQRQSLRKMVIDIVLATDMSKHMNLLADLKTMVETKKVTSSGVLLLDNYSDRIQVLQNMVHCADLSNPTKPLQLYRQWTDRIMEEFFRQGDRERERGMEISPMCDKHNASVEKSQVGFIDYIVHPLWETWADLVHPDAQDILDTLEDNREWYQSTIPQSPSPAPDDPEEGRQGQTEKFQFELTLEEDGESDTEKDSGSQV

`N#Cc1cccc(Nc2nc(N)c(C(=O)c3ccc(Oc4ccccc4)cc3)s2)c1` [Compound 2-46, 3-[4-Amino-5-(4-phenoxy-benzoyl)-thiazol-2-ylamino]-benzonitrile]: the IC50 in test [1] (setting [3]) and in test [2] (setting [4]) was less than 10 µM throughout.
Turning to `COc1ccc(C(=O)c2sc(Nc3cccc(C#N)c3)nc2N)cc1` [Compound 2-48, 3-[4-Amino-5-(4-methoxy-benzoyl)-thiazol-2-ylamino]-benzonitrile], the IC50 in test [1] (setting [3]) and in test [2] (setting [4]) was less than 10 µM in each case.
Take `COc1ccc(C(=O)c2sc(Nc3ccc(Oc4ccccc4)cc3)nc2N)cc1` [Compound 2-49, [4-Amino-2-(4-phenoxy-phenylamino)-thiazol-5-yl]-(4-methoxy-phenyl)-methanone]: the IC50 in test [1] (setting [3]) and in test [2] (setting [4]) was less than 10 µM in each case.
On to `Nc1nc(Nc2ccccc2F)sc1C(=O)c1cccc(Cl)c1` [Compound 2-50, [4-Amino-2-(2-fluoro-phenylamino)-thiazol-5-yl]-(3-chloro-phenyl)-methanone], for which the IC50 in test [1] (setting [3]) and in test [2] (setting [4]) was less than 10 µM each time.
Turning to `COc1ccc(Nc2nc(N)c(C(=O)c3cccc(Cl)c3)s2)cc1` [Compound 2-51, [4-Amino-2-(4-methoxy-phenylamino)-thiazol-5-yl]-(3-chloro-phenyl)-methanone], the IC50 in test [1] (setting [3]) and in test [2] (setting [4]) was less than 10 µM in each case.
Turning to `N#Cc1cccc(Nc2nc(N)c(C(=O)c3cccc(Cl)c3)s2)c1` [Compound 2-52, 3-[4-Amino-5-(3-chloro-benzoyl)-thiazol-2-ylamino]-benzonitrile], the IC50 in test [1] (setting [3]) and in test [2] (setting [4]) was less than 10 µM each time.
Turning to `Nc1nc(Nc2ccc(Oc3ccccc3)cc2)sc1C(=O)c1cccc(Cl)c1` [Compound 2-53, [4-Amino-2-(4-phenoxy-phenylamino)-thiazol-5-yl]-(3-chloro-phenyl)-methanone], the IC50 in test [1] (setting [3]) and in test [2] (setting [4]) was less than 10 µM throughout.
Turning to `Nc1nc(Nc2ccccc2F)sc1C(=O)c1cccc(C(F)(F)F)c1` [Compound 2-54, [4-Amino-2-(2-fluoro-phenylamino)-thiazol-5-yl]-(3-trifluoromethyl-phenyl)-methanone], the IC50 in test [1] (setting [3]) and in test [2] (setting [4]) was less than 10 µM each time.
Regarding `COc1ccc(Nc2nc(N)c(C(=O)c3cccc(C(F)(F)F)c3)s2)cc1` [Compound 2-55, [4-Amino-2-(4-methoxy-phenylamino)-thiazol-5-yl]-(3-trifluoromethyl-phenyl)-methanone], the IC50 in test [1] (setting [3]) and in test [2] (setting [4]) was less than 10 µM in each case.
Regarding `N#Cc1cccc(Nc2nc(N)c(C(=O)c3cccc(C(F)(F)F)c3)s2)c1` [Compound 2-56, 3-[4-Amino-5-(3-trifluoromethyl-benzoyl)-thiazol-2-ylamino]-benzonitrile], the IC50 in test [1] (setting [3]) and in test [2] (setting [4]) was less than 10 µM throughout.
Regarding `Nc1nc(Nc2ccc(Oc3ccccc3)cc2)sc1C(=O)c1cccc(C(F)(F)F)c1` [Compound 2-57, [4-Amino-2-(4-phenoxy-phenylamino)-thiazol-5-yl]-(3-trifluoromethyl-phenyl)-methanone], the values for the IC50 in test [1] (setting [3]) and in test [2] (setting [4]) were less than 10 µM and greater than 10 µM, respectively.
In the case of `Nc1nc(Nc2ccccc2F)sc1C(=O)c1ccc(OC(F)F)cc1` [Compound 2-58, [4-Amino-2-(2-fluoro-phenylamino)-thiazol-5-yl]-(4-difluoromethoxy-phenyl)-methanone], the IC50 in test [1] (setting [3]) and in test [2] (setting [4]) was less than 10 µM throughout.
Regarding `COc1ccc(Nc2nc(N)c(C(=O)c3ccc(OC(F)F)cc3)s2)cc1` [Compound 2-59, [4-Amino-2-(4-methoxy-phenylamino)-thiazol-5-yl]-(4-difluoromethoxy-phenyl)-methanone], the IC50 in test [1] (setting [3]) and in test [2] (setting [4]) was less than 10 µM throughout.
With `N#Cc1cccc(Nc2nc(N)c(C(=O)c3ccc(OC(F)F)cc3)s2)c1` [Compound 2-60, 3-[4-Amino-5-(4-difluoromethoxy-benzoyl)-thiazol-2-ylamino]-benzonitrile], the IC50 in test [1] (setting [3]) was less than 10 µM; in test [2] (setting [4]) it was greater than 10 µM.
Consider `COc1cccc(C(=O)c2sc(Nc3ccccc3F)nc2N)c1` [Compound 2-62, [4-Amino-2-(2-fluoro-phenylamino)-thiazol-5-yl]-(3-methoxy-phenyl)-methanone], for which the IC50 in test [1] (setting [3]) and in test [2] (setting [4]) was less than 10 µM throughout.
Regarding `COc1ccc(Nc2nc(N)c(C(=O)c3cccc(OC)c3)s2)cc1` [Compound 2-63, [4-Amino-2-(4-methoxy-phenylamino)-thiazol-5-yl]-(3-methoxy-phenyl)-methanone], the IC50 in test [1] (setting [3]) and in test [2] (setting [4]) was less than 10 µM in each case.
On to `COc1cccc(C(=O)c2sc(Nc3ccc(Oc4ccccc4)cc3)nc2N)c1` [Compound 2-65, [4-Amino-2-(4-phenoxy-phenylamino)-thiazol-5-yl]-(3-methoxy-phenyl)-methanone], for which the IC50 in test [1] (setting [3]) and in test [2] (setting [4]) was less than 10 µM in each case.
For the compound `Nc1nc(Nc2ccc(Oc3ccccc3)cc2)sc1C(=O)c1ccccc1Cl` [Compound 2-66, [4-Amino-2-(4-phenoxy-phenylamino)-thiazol-5-yl]-(2-chloro-phenyl)-methanone], the IC50 in test [1] (setting [3]) was less than 10 µM; in test [2] (setting [4]) it was greater than 10 µM.
Taken in the same sequence, the figures for `Nc1nc(NCc2ccccc2)sc1C(=O)c1ccccc1` [Compound 2-68, (4-Amino-2-benzylamino-thiazol-5-yl)-phenyl-methanone] were less than 10 µM and less than 10 µM.
For the compound `COc1cccc(C(=O)c2sc(NC(C)C)nc2N)c1` [Compound 2-69, (4-Amino-2-isopropylamino-thiazol-5-yl)-(3-methoxy-phenyl)-methanone], the IC50 in test [1] (setting [3]) is less than 10 µM; in test [2] (setting [4]) it was greater than 10 µM.
Regarding `Nc1nc(Nc2cccc3ccccc23)sc1C(=O)c1ccccc1` [Compound 2-70, [4-Amino-2-(naphthalen-1-ylamino)-thiazol-5-yl]-phenyl-methanone], the IC50 in test [1] (setting [3]) and in test [2] (setting [4]) was less than 10 µM in each case.
In the case of `Nc1nc(Nc2cccnc2)sc1C(=O)c1ccccc1` [Compound 2-71, [4-Amino-2-(pyridin-3-ylamino)-thiazol-5-yl]-phenyl-methanone], the IC50 in test [1] (setting [3]) and in test [2] (setting [4]) was less than 10 µM in each case.
`COc1ccc(C(=O)c2sc(Nc3cccnc3)nc2N)cc1` [Compound 2-72, [4-Amino-2-(pyridin-3-ylamino)-thiazol-5-yl]-(4-methoxy-phenyl)-methanone]: the IC50 in test [1] (setting [3]) and in test [2] (setting [4]) was less than 10 µM throughout.
Take `Nc1nc(Nc2ccccn2)sc1C(=O)c1ccccc1` [Compound 2-73, [4-Amino-2-(pyridin-2-ylamino)-thiazol-5-yl]-phenyl-methanone]: the IC50 in test [1] (setting [3]) was less than 10 µM; in test [2] (setting [4]), greater than 10 µM.
Taken in the same sequence, the figures for `Nc1nc(Nc2ccc(Oc3ccccc3)nc2)sc1C(=O)c1ccccc1` [Compound 2-74, [4-Amino-2-(6-phenoxy-pyridin-3-ylamino)-thiazol-5-yl]-phenyl-methanone] were greater than 10 µM and less than 10 µM.
Taken in the same sequence, the figures for `Nc1nc(NC2CCCC2)sc1C(=O)c1ccccc1Cl` [Compound 2-75, (4-Amino-2-cyclopentylamino-thiazol-5-yl)-(2-chloro-phenyl)-methanone] were greater than 10 µM and greater than 10 µM.
The matching figures for `Nc1nc(NC2CC2)sc1C(=O)c1ccc(Oc2ccccc2)cc1` [Compound 2-77, (4-Amino-2-cyclopropylamino-thiazol-5-yl)-(4-phenoxy-phenyl)-methanone]: less than 10 µM and less than 10 µM.
`COc1ccc(C(=O)c2sc(NC3CCCC3)nc2N)cc1` [Compound 2-78, (4-Amino-2-cyclopentylamino-thiazol-5-yl)-(4-methoxy-phenyl)-methanone]: the IC50 in test [1] and in test [2] was less than 10 µM throughout.
For the compound `COc1ccc(C(=O)c2sc(NC3CC3)nc2N)cc1` [Compound 2-79, (4-Amino-2-cyclopropylamino-thiazol-5-yl)-(4-methoxy-phenyl)-methanone], the IC50 in test [1] (setting [3]) and in test [2] (setting [4]) was less than 10 µM each time.
As for `Nc1nc(NC2CC2)sc1C(=O)c1cccc(Cl)c1` [Compound 2-81, (4-Amino-2-cyclopropylamino-thiazol-5-yl)-(3-chloro-phenyl)-methanone], the IC50 in test [1] (setting [3]) and in test [2] (setting [4]) was less than 10 µM each time.
As for `Nc1nc(NC2CCCC2)sc1C(=O)c1cccc(C(F)(F)F)c1` [Compound 2-82, (4-Amino-2-cyclopentylamino-thiazol-5-yl)-(3-trifluoromethyl-phenyl)-methanone], the IC50 in test [1] (setting [3]) and in test [2] (setting [4]) was less than 10 µM each time.
With `Nc1nc(NC2CCCC2)sc1C(=O)c1ccc(OC(F)F)cc1` [Compound 2-84, (4-Amino-2-cyclopentylamino-thiazol-5-yl)-(4-difluoromethoxy-phenyl)-methanone], the IC50 in test [1] (setting [3]) and in test [2] (setting [4]) was less than 10 µM each time.
As to `Nc1nc(NC2CC2)sc1C(=O)c1ccc(OC(F)F)cc1` [Compound 2-85, (4-Amino-2-thiazol-5-yl)-(4-difluoromethoxy-phenyl)-methanone], the IC50 is less than 10 µM in test [1] (setting [3]) and greater than 10 µM in test [2] (setting [4]).
Turning to `COc1cccc(C(=O)c2sc(NC3CCCC3)nc2N)c1` [Compound 2-86, (4-Amino-2-cyclopentylamino-thiazol-5-yl)-(3-methoxy-phenyl)-methanone], the IC50 in test [1] (setting [3]) and in test [2] (setting [4]) was less than 10 µM in each case.
Consider `COc1cccc(C(=O)c2sc(NC3CC3)nc2N)c1` [Compound 2-87, (4-Amino-2-cyclopropylamino-thiazol-5-yl)-(3-methoxy-phenyl)-methanone], for which the IC50 in test [1] (setting [3]) and in test [2] (setting [4]) was less than 10 µM in each case.
